These results are taken from patent US11945881B2, “Neoantigens expressed in ovarian cancer and their uses” (Janssen Biotech, Inc., priority 2020, dated 2024).

Test [1] relates to CD8+ T cells. The test can be described thus: exogenous autologous normal donor restimulation assay, TNFα/IFNγ double positive CD8+ T cells by flow cytometry. It counts as cell-based, human. The settings on record: for Fold change (CD8+) vs. DMSO: maximum CD8+ T-cell response (TNFα and IFNγ); for Fold change (CD8+) vs. DMSO / Frequency (TNFα + IFNγ + CD8 T cells): donor independent, peptide pool 10 μg/mL, healthy donors; for Frequency (TNFα + IFNγ + CD8 T cells): maximum CD8+ T-cell response; for Immunogenic (yes/no): positive if CD8+ and/or CD4+ double positive TNFα/IFNγ frequency >=3-fold over DMSO and at least 0.01%. How it is done:
(§1) The immunogenicity of neoantigens was assessed using the exogenous autologous normal donor restimulation assay. […] The lyophilized peptides were solubilized in 100% DMSO.
(§2) CD1c+ Dendritic Cells (CD1c+DC) isolated from human healthy PBMCs were thawed using media (IMDM (Gibco) supplemented with glutamine, HEPES, 5% human serum (Sigma), and 1× Pen-Strep). DC cells were resuspended in media supplemented with IL-4 (Peprotech, 20 ng/mL) and GM-CSF (Gibco, 20 ng/mL), plated in 6 well microplates, and rested overnight at 37° C. and 5% CO2 incubator. The following day, DC cells were counted and plated in a 96 well round bottom microplate at a concentration of 30,000 viable cells per well. Lyophilized neoantigen peptide pools (15-mer peptides with 8-mer overlapping peptide sequences) were solubilized in 100% DMSO with a stock concentration of 20 mg/mL Neoantigen peptides pools were added to DCs for a final concentration of 10 μg/mL and rested for 2 hours at 37° C. and 5% CO2 incubator. CEF Peptide Pool “Plus” (Cellular Technologies, Ltd.) was utilized as a positive control (each viral peptide at a final concentration of 4 ug/ml) and DMSO at the same final concentration (0.05%) as the experimental peptides was utilized as a negative control. After 2 hours, DC cells were irradiated with 50 gray of ionizing radiation. Autologous CD3+ Pan-T cells isolated from human normal PBMCs were thawed using media. Following irradiation, autologous Pan-T cells were added to the irradiated DCs at 300,000 viable cells per well. Human IL-15 (Peprotech) was added to all wells at final concentration of 10 ng/ml. Plates were incubated at 37° C. and 5% CO2 incubator for a total of 12 days. Media was refreshed every 2-3 days with IL-15 (R&D System, 10 ng/mL final concentration) and IL-2 (R&D systems, 10 IU/mL final concentration).
(§3) On Day 11, cells were re-stimulated with identical experimental peptide pools or controls, at same concentration as peptide stimulation on Day 1. Protein Inhibitor Cocktail (eBioscience) was added to every well and plate was incubated overnight for 14-16 hours at 37° C. and 5% CO2 incubator. On Day 12, cells were stained for surface and intracellular flow cytometry analysis. The cells were washed with PBS and stained with Live/Dead Fixable Aqua Dead Cell stain (Thermo-Fisher). Following the live/dead stain, cells were blocked using Biotin-Fre Fc Receptor Blocker (Accurate Chemical & Scientific Corp). Extracellular cellular flow panel ([…] per well in 50 μL) consisted of CD3 PerCP-Cy5.5 (Biolegend), CD4 BV421 (Biolegend), and CD8 APC-Cy7 (Biolegend). After extracellular staining, cells were fixed and permeabilized using Foxp3/Transcription Factor Staining Buffer Set (eBioscience) and stained for intracellular proteins (1:50 dilution) using TNFα FITC (R&D Systems) and IFNγ BV785 (Biolegend). Cells were washed and resuspended in stain buffer, analyzed, and recorded in a BD Celesta flow cytometer.
(§4) Flow cytometry analysis was conducted on FlowJo v10.6 software. Cells were gated on live, singlet, CD3+, CD4+ and CD8+ T cells. The CD8+ and CD4+ T cells were analyzed for TNFα and IFNγ expression.
(§5) The immunogenicity of neoantigens was first investigated in 9-16 healthy donors.
For orientation: Flow cytometry measures light scatter and fluorescence of single cells or particles in a stream.

In test [2] the test system is CD4+ T cells. In words: exogenous autologous normal donor restimulation assay, TNFα/IFNγ double positive CD4+ T cells by flow cytometry. It counts as cell-based, human. The settings on record: donor independent, peptide pool 10 μg/mL, healthy donors; for Fold change (CD4+) vs. DMSO: maximum CD4+ T-cell response (TNFα and IFNγ); for Frequency (TNFα + IFNγ + CD4 T cells): maximum CD4+ T-cell response. How it is done: as §1, §2, §3, §4, §5

“KLCSRQRPDCQPVDSRHGPILSIQHLISALHTGDG [AS123, neoantigen, alternative splicing of VWA2]”: in test [1], the “Fold change (CD8+) vs. DMSO” value was found to be 115.04 fold, the “Frequency (TNFα + IFNγ + CD8 T cells)” value was 1.09% and the “Immunogenic (yes/no)” value is “yes”. For the same sequence, in test [2], the “Fold change (CD4+) vs. DMSO” value stood at 3.7 fold and the “Frequency (TNFα + IFNγ + CD4 T cells)” value came out at 0.024%.

For “KNFITCFKGGHASAAEPRKGR [FUS22, neoantigen, gene fusion C8orf82->LRRC24]”, in test [1], the “Fold change (CD8+) vs. DMSO” value is reported as 8.05 fold, the “Frequency (TNFα + IFNγ + CD8 T cells)” value worked out at 0.087% and the “Immunogenic (yes/no)” value is given as “Yes”. Further, in test [2], the “Fold change (CD4+) vs. DMSO” value is on record as 8.67 fold and the “Frequency (TNFα + IFNγ + CD4 T cells)” value is on record as 0.31%.

As to “KRPMASEVSFILIQWLLKP [AS146, neoantigen, alternative splicing of PIP5K1A]”, in test [1], the “Fold change (CD8+) vs. DMSO” value stood at 24.2 fold, the “Frequency (TNFα + IFNγ + CD8 T cells)” value was 0.26% and the “Immunogenic (yes/no)” value is recorded as “Yes”. For the same sequence, in test [2], the “Fold change (CD4+) vs. DMSO” value is 8.88 fold and the “Frequency (TNFα + IFNγ + CD4 T cells)” value is recorded as 0.037%.

For “LASGVPPPGLPWGPGPHLG [AS60, neoantigen, alternative splicing of HMCN2]”, in test [1], the “Fold change (CD8+) vs. DMSO” value is 265.02 fold, the “Frequency (TNFα + IFNγ + CD8 T cells)” value is 1.9% and the “Immunogenic (yes/no)” value is “Yes”. Moreover, in test [2], the “Fold change (CD4+) vs. DMSO” value is 4.3 fold and the “Frequency (TNFα + IFNγ + CD4 T cells)” value is 0.019%.

In the case of “LCAISVDRCAALPARAPAPPRPARRPHRGLCAVRRPLGAPRRFVAVAVP [AS159, neoantigen, alternative splicing of DRD4]”, in test [1], the “Fold change (CD8+) vs. DMSO” value was determined as 39.04 fold, the “Frequency (TNFα + IFNγ + CD8 T cells)” value was found to be 0.12% and the “Immunogenic (yes/no)” value is “Yes”. Besides, in test [2], the “Fold change (CD4+) vs. DMSO” value is on record as 12.5 fold and the “Frequency (TNFα + IFNγ + CD4 T cells)” value was 0.081%.

For the sequence “LDLAGNARPCRSQSPTSSDQTPSVPSLGSPELPDGEEGGSPDGSPQESEQVRQGQHV [AS103, neoantigen, alternative splicing of GTF2IRD1]”, in test [1], the “Fold change (CD8+) vs. DMSO” value was 48.82 fold, the “Frequency (TNFα + IFNγ + CD8 T cells)” value is reported as 0.83% and the “Immunogenic (yes/no)” value was “Yes”. Moreover, in test [2], the “Fold change (CD4+) vs. DMSO” value is listed as 6.62 fold and the “Frequency (TNFα + IFNγ + CD4 T cells)” value is recorded as 0.086%.

“LEEEFISEWRRCLLCSYLQW [AS63, neoantigen, alternative splicing of IMPG2]”: in test [1], the “Fold change (CD8+) vs. DMSO” value was 185.74 fold, the “Frequency (TNFα + IFNγ + CD8 T cells)” value was found to be 0.5% and the “Immunogenic (yes/no)” value is “Yes”. Moreover, in test [2], the “Fold change (CD4+) vs. DMSO” value was 13.54 fold and the “Frequency (TNFα + IFNγ + CD4 T cells)” value is on record as 0.15%.

Turning to “LLFFVAGEVLRHEEFE [FUS15, neoantigen, gene fusion NXN->GLOD4]”, in test [1], the “Fold change (CD8+) vs. DMSO” value is 8.84 fold, the “Frequency (TNFα + IFNγ + CD8 T cells)” value is 0.19% and the “Immunogenic (yes/no)” value is “yes”. Besides, in test [2], the “Fold change (CD4+) vs. DMSO” value was 16.21 fold and the “Frequency (TNFα + IFNγ + CD4 T cells)” value was 0.08%.

In the case of “LLFPYNQLDLHLHRPSGSRKNEIHWDKCFSSED [AS68, neoantigen, alternative splicing of PKHD1L1]”, in test [1], the “Fold change (CD8+) vs. DMSO” value was found to be 17.52 fold, the “Frequency (TNFα + IFNγ + CD8 T cells)” value stood at 0.11% and the “Immunogenic (yes/no)” value is on record as “Yes”. In addition, in test [2], the “Fold change (CD4+) vs. DMSO” value is 5.43 fold and the “Frequency (TNFα + IFNγ + CD4 T cells)” value stood at 0.024%.

For the sequence “LRLRPNRRRASSAQTAPTSSLSLWSGASRRRRPAGGHMWCTAGRPSSRSGQNLTGTCTMKPLAWETFPTCWAWWGTSWATQSGSGGMPSQAATASRCCWWWTTRWFASMARSMCRTMSSPS [AS1]”, in test [1], the “Fold change (CD8+) vs. DMSO” value is on record as 29.8 fold, the “Frequency (TNFα + IFNγ + CD8 T cells)” value was determined as 0.57% and the “Immunogenic (yes/no)” value is “Yes”. For the same sequence, in test [2], the “Fold change (CD4+) vs. DMSO” value turned out to be 16.77 fold and the “Frequency (TNFα + IFNγ + CD4 T cells)” value stood at 0.15%.
